Results published in ChEMBL document CHEMBL5214978, “Identification of 1,4-Benzodiazepine-2,5-dione Derivatives as Potential Protein Synthesis Inhibitors with Highly Potent Anticancer Activity” (J Med Chem, 2022).
Blank lines part the entries; values can stand above or below the compound they belong to. Activity calls are given as the source filed them. The rule behind the calls is not given here.

What was measured:
[1] = tested on: MCF7; test: Anticancer activity against human MCF7 cells assessed as cell growth inhibition
[2] = tested on: MDA-MB-231; test: Anticancer activity against human MDA-MB-231 cells assessed as cell growth inhibition
[3] = tested on: NCI-H661; test: Anticancer activity against human NCI-H661 cells assessed as cell growth inhibition; type: functional, cell-based
[4] = biological target: T1, Nuclear receptor subfamily 6 group A member 1 (Homo sapiens, UniProt Q15406); test: Antagonist activity at GCNF (unknown origin) by luciferase reporter gene assay
T1 sequence (Q15406 whole entry): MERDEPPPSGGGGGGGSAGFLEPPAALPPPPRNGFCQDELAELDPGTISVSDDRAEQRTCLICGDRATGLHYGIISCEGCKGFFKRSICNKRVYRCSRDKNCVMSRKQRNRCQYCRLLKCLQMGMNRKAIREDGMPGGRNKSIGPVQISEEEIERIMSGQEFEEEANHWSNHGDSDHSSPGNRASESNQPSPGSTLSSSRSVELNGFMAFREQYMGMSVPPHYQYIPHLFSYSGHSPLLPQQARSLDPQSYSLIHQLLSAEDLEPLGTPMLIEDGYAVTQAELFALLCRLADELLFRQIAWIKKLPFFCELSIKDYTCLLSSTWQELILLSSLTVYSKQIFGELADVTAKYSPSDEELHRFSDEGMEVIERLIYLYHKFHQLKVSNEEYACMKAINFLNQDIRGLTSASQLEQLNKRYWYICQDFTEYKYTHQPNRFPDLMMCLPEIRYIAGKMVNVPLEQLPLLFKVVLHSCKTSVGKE

[5] = tested on: A498; test: Anticancer activity against human A498 cells assessed as cell growth inhibition; type: functional, cell-based
[6] = tested on: A549; test: Anticancer activity against human A549 cells assessed as cell growth inhibition measured after 48 hrs by SRB assay; type: functional
[7] = tested on: SF-295; test: Anticancer activity against human SF-295 cells assessed as cell growth inhibition measured after 48 hrs by SRB assay; type: functional
[8] = tested on: HCT-116; test: Anticancer activity against human HCT-116 cells assessed as cell growth inhibition measured after 48 hrs by SRB assay; type: functional
[9] = tested on: 786-0; test: Anticancer activity against human 786-0 cells assessed as cell growth inhibition measured after 48 hrs by SRB assay; type: functional
[10] = tested on: LOX IMVI; test: Anticancer activity against human LOX IMVI cells assessed as cell growth inhibition measured after 48 hrs by SRB assay; type: functional
[11] = tested on: Panel NCI-60 (60 carcinoma cell lines); test: Anticancer activity against human Panel NCI-60 (60 carcinoma cell lines) line assessed as cell growth inhibition measured after 48 hrs by SRB assay; type: functional
[12] = tested on: NCI-H522; test: Induction of apoptosis in human NCI-H522 cells assessed as viable cells at 0.05 uM incubated for 48 hrs by Annexin V-FITC/PI staining based flow cytometric analysis (reference value: 82.4%); type: functional; settings: read-out: Activity
[13] = tested on: NCI-H522; test: Induction of apoptosis in human NCI-H522 cells assessed as viable cells at 0.5 uM incubated for 48 hrs by Annexin V-FITC/PI staining based flow cytometric analysis (reference value: 82.4%); type: functional; settings: read-out: Activity
[14] = tested on: NCI-H522; test: Induction of apoptosis in human NCI-H522 cells assessed as necrotic cells at 0.5 uM incubated for 48 hrs by Annexin V-FITC/PI staining based flow cytometric analysis (Rvb =0.64 %); type: functional
[15] = AUC (0 to t) in BALB/c nude mouse at 1 mg/kg, iv by LC-MS/MS analysis; type: ADME, organism-based; set-up: dose 1 mg/kg, route iv; settings: in vivo
[16] = tested on: NCI-H522; test: Induction of apoptosis in human NCI-H522 cells assessed as early apoptotic cells at 0.05 uM incubated for 48 hrs by Annexin V-FITC/PI staining based flow cytometric analysis (Rvb =7.01 %); type: functional
[17] = tested on: NCI-H522; test: Antitumor activity against human NCI-H522 cells xenografted in BALB/c nude mouse assessed as reduction of tumor growth by measuring T/C ratio at 50 mg/kg, iv administered every 4 days for 21 days; type: functional; settings: time 4 day
[18] = tested on: NCI-H522; test: Induction of apoptosis in human NCI-H522 cells assessed as late apoptotic cells at 5 uM incubated for 48 hrs by Annexin V-FITC/PI staining based flow cytometric analysis (Rvb =9.14 %); type: functional
[19] = tested on: NCI-H522; test: Induction of apoptosis in human NCI-H522 cells assessed as apoptotic rate at 0.05 to 5 uM incubated for 48 hrs by AnnexinV-FITC/PI staining based flow cytometric analysis; type: functional; settings: dose 0.05-5 µM
[20] = AUC (0 to t) in BALB/c nude mouse at 10 mg/kg, po by LC-MS/MS analysis; type: ADME, organism-based; set-up: dose 10 mg/kg, route po; settings: in vivo
[21] = tested on: NCI-H460; test: Induction of apoptosis in human NCI-H460 cells assessed as effect on caspase 7 level at 1 uM measured for 48 hrs by western blot analysis; type: functional, cell-based
[22] = tested on: NCI-H522; test: Induction of apoptosis in human NCI-H522 cells assessed as viable cells at 5 uM incubated for 48 hrs by Annexin V-FITC/PI staining based flow cytometric analysis (reference value: 82.4%); type: functional; settings: read-out: Activity
[23] = Cmax in BALB/c nude mouse at 10 mg/kg, po by LC-MS/MS analysis; type: ADME, organism-based; set-up: dose 10 mg/kg, route po; settings: in vivo
[24] = tested on: NCI-H522; test: Induction of apoptosis in human NCI-H522 cells assessed as late apoptotic cells at 0.5 uM incubated for 48 hrs by Annexin V-FITC/PI staining based flow cytometric analysis (Rvb =9.14 %); type: functional
[25] = Toxicity in BALB/c nude mouse xenografted with human NCI-H522 cells assessed as change in body weight at 12.5 to 50 mg/kg, iv administered every 4 days for 21 days; type: organism-based; settings: in vivo, 96 h, dose 12.5-50 mg/kg, time 4 day
[26] = tested on: NCI-H522; test: Induction of apoptosis in human NCI-H522 cells assessed as necrotic cells at 5 uM incubated for 48 hrs by Annexin V-FITC/PI staining based flow cytometric analysis (Rvb =0.64 %); type: functional
[27] = Oral bioavailability in BALB/c nude mouse at 10 mg/kg by LC-MS/MS analysis; type: ADME, organism-based; settings: in vivo
[28] = tested on: NCI-H522; test: Induction of mitochondrial membrane potential depolarization in human NCI-H522 cells measured after 48 hrs by JC-1 staining based flow cytometry analysis; type: functional, cell-based; settings: dose 0.05-5 µM, DDE = dose-dependent effect
[29] = tested on: NCI-H460; test: Induction of apoptosis in human NCI-H460 cells assessed as effect on caspase 3 level at 1 uM measured for 48 hrs by western blot analysis; type: functional, cell-based
[30] = tested on: NCI-H460; test: Downregulation of c-Myc protein expression level in human NCI-H460 cells at 20 nM incubated for 0.5 to 6 hrs by western blot analysis; type: functional, cell-based; settings: time 0.5-6 hrs
[31] = tested on: NCI-H522; test: Induction of apoptosis in human NCI-H522 cells assessed as late apoptotic cells at 0.05 uM incubated for 48 hrs by Annexin V-FITC/PI staining based flow cytometric analysis (Rvb =9.14 %); type: functional
[32] = tested on: NCI-H522; test: Induction of apoptosis in human NCI-H522 cells assessed as early apoptotic cells at 0.5 uM incubated for 48 hrs by Annexin V-FITC/PI staining based flow cytometric analysis (Rvb =7.01 %); type: functional
[33] = tested on: NCI-H522; test: Antitumor activity against human NCI-H522 cells xenografted in BALB/c nude mouse assessed as reduction of tumor weight at 50 mg/kg, iv administered every 4 days for 21 days; type: functional; set-up: scale not given: the % may be the effect or the level left; settings: time 4 day
[34] = tested on: NCI-H522; test: Antitumor activity against human NCI-H522 cells xenografted in iv dosed BALB/c nude mouse assessed as inhibition of tumor growth administered every 4 days for 21 days; type: functional, organism-based; settings: dose 12.5-50 mg/kg, time 4.0 day, DDE = dose-dependent effect
[35] = tested on: NCI-H460; test: Induction of cell cycle arrest in human NCI-H460 cells assessed as accumulation at S phase at 20 nM incubated for 48 hrs by PI staining based flow cytometric analysis; type: functional
[36] = tested on: NCI-H460; test: Induction of apoptosis in human NCI-H460 cells assessed as effect on caspase 9 level at 1 uM measured for 48 hrs by western blot analysis; type: functional, cell-based
[37] = tested on: NCI-H522; test: Induction of apoptosis in human NCI-H522 cells assessed as early apoptotic cells at 5 uM incubated for 48 hrs by Annexin V-FITC/PI staining based flow cytometric analysis (Rvb =7.01 %); type: functional
[38] = Cmax in BALB/c nude mouse at 1 mg/kg, iv by LC-MS/MS analysis; type: ADME, organism-based; set-up: dose 1 mg/kg, route iv; settings: in vivo
[39] = tested on: NCI-H460; test: Induction of apoptosis in human NCI-H460 cells assessed as effect on cleavage of PARP at 1 uM measured for 48 hrs by western blot analysis; type: functional, cell-based
[40] = tested on: NCI-H460; test: Inhibition of polyribosome in human NCI-H460 cells assessed as increase in 80S ribosome at 200 nM incubated for 1 hr in presence of cycloheximide; type: functional, cell-based
[41] = Inhibition of tubulin polymerization […] assessed as microtubule assembly measured every 1 min for 60 mins by fluorimeter analysis
[42] = tested on: NCI-H522; test: Induction of apoptosis in human NCI-H522 cells assessed as necrotic cells at 0.05 uM incubated for 48 hrs by Annexin V-FITC/PI staining based flow cytometric analysis (Rvb =0.64 %); type: functional
[43] = Half life in BALB/c nude mouse at 10 mg/kg, po by LC-MS/MS analysis; type: ADME, organism-based; settings: in vivo

Structure (SMILES): C[C@H](c1ccc(Cl)cc1)N1C(=O)c2cc(I)ccc2N(CCCCC(=O)O)C(=O)[C@@H]1c1ccc(Cl)cc1
- IC50 [1]: 7 µM
- IC50 [2]: 67 µM

Structure (SMILES): O=C1Nc2ccc(Br)cc2C(=O)N(Cc2ccccc2Sc2ccc(Cl)cc2)[C@@H]1Cc1ccccc1
- EC50 [4]: < 7 µM
- IC50 [5]: 5 µM

Structure (SMILES): COC(=O)C[C@@H]1NC(=O)c2cc(OCCc3cc(C)cc(C)c3)c(NC(=O)c3cc(OC)c(OC)c(OC)c3)cc2NC1=O
- GI50 [6]: 2.09 µM
- GI50 [7]: 1.61 µM
- GI50 [8]: 4.01 µM
- GI50 [9]: 7.45 µM
- GI50 [10]: 5.15 µM
- GI50 [11]: 3.02 µM

Second part, led by results:

- IC50 [3]: 6 µM
Structure (SMILES): O=C(CCCCCN1C(=O)c2ccccc2N(Cc2ccccc2)C(=O)[C@@H]1Cc1ccccc1)NO

- GI50 [6]: > 50 µM
- GI50 [8]: > 50 µM
- GI50 [9]: > 50 µM
Structure (SMILES): COC(=O)C[C@@H]1NC(=O)c2cc(Oc3ccc(F)cc3)c(NC(=O)c3cc(OC)c(OC)c(OC)c3)cc2NC1=O
- GI50 [7]: > 50 µM
- GI50 [10]: > 50 µM
- GI50 [11]: > 50 µM

- AUC(0-t) [15]: 439 ng·h/mL
- GI50 [6]: < 0.005 µM
- AUC(0-t) [20]: 66.5 ng·h/mL
- GI50 [8]: < 0.005 µM
- GI50 [9]: < 0.005 µM
- Cmax [23]: 42.6 ng/mL
- bioavailability [27]: 1.53%
- Cmax [38]: 1540 ng/mL
- IC50 [41]: 10.1 µM
- half-life [43]: 1.4 h
Structure (SMILES): CCN(CC)C(=O)C[C@H]1C(=O)Nc2cc(NC(=O)c3cc(OC)c(OC)c(OC)c3Br)c(Oc3cc(C)cc(C)c3)cc2C(=O)N1C
- viability at 0.05 µM [12]: 65.8%
- viability at 0.5 µM [13]: 28.4%
- Activity [14]: 4.6%
- Activity [16]: 7.75%
- T/C [17]: 13.6%
- Activity [18]: 59%
- Activity [19]: 35%
- GI50 [7]: < 0.005 µM
- Activity [21]: Active
- viability at 5 µM [22]: 13.5%
- Activity [24]: 52.4%
- Activity [25]: < 10%
- Activity [26]: 7.64%
- Activity [28]: Dde
- Activity [29]: Active
- Activity [30]: Active
- Activity [31]: 25.2%
- Activity [32]: 14.5%
- Activity [33]: 88.7%
- Activity [34]: Dde
- Activity [35]: Active
- Activity [36]: Active
- Activity [37]: 19.8%
- Activity [39]: Active
- GI50 [10]: < 0.005 µM
- Activity [40]: Active
- GI50 [11]: < 0.005 µM
- Activity [42]: 1.25%
